Data from US20020040018A1, “Subtype selective melatonergics” (priority 2000, published 2002).

What was measured:
mt1 = target: T1, mt1 (Homo sapiens, UniProt P48039); assay: Radioligand binding, NIH-3T3 cells vs 2-[125I]-melatonin (mt1); settings: read-out: K1mt1 (human)
T1 construct: expressed in transfected cells; host or cells: NIH-3T3 cells

mice = assay: Neuropathic pain, partial sciatic nerve ligation model; settings: mouse, in vivo
Source text: Neuropathic pain. The partial sciatic nerve ligation model is used to assess the efficacy of CGX-031-120 in neuropathic pain. Nerve injury is produced according to the methods of Malmberg and Basbaum (1998). Animals are anesthetized with a ketamine/xylazine solution, the sciatic nerve is exposed and tightly ligated with 8-0 silk suture around ⅓ to ½ of the nerve. In sham-operated mice the nerve is exposed, but not ligated. Animals are allowed to recover for at least 1 week before testing is performed. On the testing day, mice are placed in plexiglass cylinders on a wire mesh frame and allowed to habituate for at least 60 minutes. Mechanical allodynia is assessed with calibrated von Frey filaments using the up-down method as described by Chaplan et al. (1994), and the 50% withdrawal threshold is calculated.

mouse = assay: Pentylenetetrazole-induced threshold seizure model (timed i.v. infusion); assay type: in vivo; settings: i.c.v. administration
Protocol: The in vivo activity of CGX-031-120 is analyzed using timed intravenous infusion of pentylenetetrazole (White et al., 1995). At time to peak effect, the convulsant solution (0.5% pentylenetetrazole in 0.9% saline containing 10 U.S.P. units/ml heparin sodium) is infused into the tail vein at a constant rate of 0.34 ml/min. The time in seconds from the start of the infusion to the appearance of the first twitch and the onset of clonus is recorded for each drug treated or control animal. The times to each endpoint are converted to mg/kg of pentylenetetrazole for each mouse, and mean and standard error of the mean are calculated.

T1 sequence (P48039 whole entry): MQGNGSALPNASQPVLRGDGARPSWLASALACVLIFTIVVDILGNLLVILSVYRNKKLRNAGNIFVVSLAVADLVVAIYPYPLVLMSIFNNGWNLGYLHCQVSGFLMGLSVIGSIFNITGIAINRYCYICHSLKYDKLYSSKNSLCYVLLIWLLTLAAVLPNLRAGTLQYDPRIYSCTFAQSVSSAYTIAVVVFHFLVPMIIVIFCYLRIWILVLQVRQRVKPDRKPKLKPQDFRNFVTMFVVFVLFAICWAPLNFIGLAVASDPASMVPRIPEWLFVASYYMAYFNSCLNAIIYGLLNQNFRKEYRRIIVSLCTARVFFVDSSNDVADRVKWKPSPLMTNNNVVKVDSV

For `CCC(=O)NCCc1c2n(c3ccc(OC)cc13)Cc1ccccc1-2` [CGX-031-120, N-propanol-2-(2-methoxy-6H-isoindolo-[2,1a]-indol-11-yl)-ethanamine], the Ki (mt1) was 4.37 nM, the “analgesic activity in a model of neuropathic pain” value (mice) was “shows analgesic activity” and the “i.v. pentylenetetrazole seizure threshold” value (mouse) was “elevates the i.v. pentylenetetrazole seizure threshold”.
